Six compounds from patent US9486506B2 (Novo Nordisk A/S, priority 2011, dated 2016) can be followed below.

Molecules are shown by their SMILES. Numbered stars: 1 amine (or outer) side, 2 acyl side, 3 side chain; on linkers, the order of the positions; unused ones are H or OH. Side chains are listed from the residue outwards. Peptide text beside a SMILES is read from it. * marks the point of attachment. C18 diacid = O=C(O)CCCCCCCCCCCCCCCCC(=O)*; γGlu = O=C(O)[C@H](CCC(=O)[*:2])N[*:1]; AEEA = NCCOCCOCC(=O)O

T1 sequence (P47871 26-477): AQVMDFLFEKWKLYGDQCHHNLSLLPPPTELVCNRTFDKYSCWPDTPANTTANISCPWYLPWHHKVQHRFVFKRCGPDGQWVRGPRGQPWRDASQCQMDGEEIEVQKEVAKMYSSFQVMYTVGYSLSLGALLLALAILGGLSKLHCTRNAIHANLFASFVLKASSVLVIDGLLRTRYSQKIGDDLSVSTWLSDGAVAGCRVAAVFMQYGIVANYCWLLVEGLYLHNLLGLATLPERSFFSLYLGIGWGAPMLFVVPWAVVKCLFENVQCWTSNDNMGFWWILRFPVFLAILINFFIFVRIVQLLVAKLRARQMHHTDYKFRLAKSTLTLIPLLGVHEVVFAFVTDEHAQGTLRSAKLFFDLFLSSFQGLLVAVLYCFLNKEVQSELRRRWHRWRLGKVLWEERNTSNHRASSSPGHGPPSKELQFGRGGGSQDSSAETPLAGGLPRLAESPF

This assay has as its target T1, glucagon receptor (Homo sapiens, UniProt P47871).
T1 construct: expressed in transfected cells
Put plainly: Assay (I) Glucagon activity (cAMP biosensor, FLIPR). It counts as cell-based. How it is done: The cells (14000 per well) were incubated (37° C., 5% CO2) overnight in 384-well plates. Next day the cells were loaded with a calcium responsive dye that only distributed into the cytoplasm. Probenecid, an inhibitor of the organic anion transporter, was added to prevent the dye from leaving the cell. A PDE inhibitor was added to prevent formatted cAMP from being degraded. The plates were placed into a […] and the glucagon analogues were added. End point data were collected after 6 minutes. An increase in intracellular cAMP was proportional to an increased in calcium concentrations in the cytoplasm. When calcium was bound the dry a fluorescence signal was generated. EC50-values were calculated in Prism5.
A word on the EC50: it is the concentration needed to bring the measured effect to its halfway point. The low end stands for greater potency, the high end for weaker potency. `CC(C)C[C@H](NC(=O)[C@H](CC(=O)O)NC(=O)[C@H](CC(C)C)NC(=O)[C@H](Cc1ccc(O)cc1)NC(=O)[C@H](CCCNC(=N)N)NC(=O)[C@H](CO)NC(=O)[C@H](Cc1ccc(O)cc1)NC(=O)[C@H](CC(=O)O)NC(=O)[C@H](CO)NC(=O)[C@@H](NC(=O)[C@H](Cc1ccccc1)NC(=O)[C@@H](NC(=O)CNC(=O)[C@H](CCC(N)=O)NC(=O)[C@H](CO)NC(=O)[C@@H](N)Cc1c[nH]cn1)[C@@H](C)O)[C@@H](C)O)C(=O)N[C@@H](CCCNC(=N)N)C(=O)N[C@@H](CCCNC(=N)N)C(=O)N[C@@H](C)C(=O)N[C@@H](CCC(N)=O)C(=O)N[C@@H](CC(=O)O)C(=O)N[C@@H](Cc1ccccc1)C(=O)N[C@H](C(=O)N[C@@H](CCCCNC(=O)CC[C@H](NC(=O)COCCOCCNC(=O)COCCOCCNC(=O)CC[C@H](NC(=O)CC[C@H](NC(=O)CCCCCCCCCCCCCCCCC(=O)O)C(=O)O)C(=O)O)C(=O)O)C(=O)N[C@@H](Cc1c[nH]c2ccccc12)C(=O)N[C@@H](CC(C)C)C(=O)N[C@@H](CC(C)C)C(=O)N[C@@H](CO)C(=O)N[C@H](C(=O)O)[C@@H](C)O)C(C)C` [Example 27, N^ε24-[(4S)-4-carboxy-4-[[2-[2-[2-[[2-[2-[2-[[(4S)-4-carboxy-4-[[(4S)-4-carboxy-4-(17-carboxyheptadecanoylamino)butanoyl]amino]butanoyl]amino]ethoxy]ethoxy]acetyl]amino]ethoxy]ethoxy]acetyl]amino]butanoyl]-[Arg^12,Leu^16,Lys^24,Leu^27,Ser^28]-Glucagon] (H-HSQGTFTSDYSRYLDLRRAQDFVK([γGlu-AEEA-AEEA-γGlu-γGlu-C18 diacid])WLLST-OH): the response was half-maximal at 0.91 nM (EC50).

Consider `CC(C)C[C@H](NC(=O)[C@H](CC(=O)O)NC(=O)[C@H](CC(C)C)NC(=O)[C@H](Cc1ccc(O)cc1)NC(=O)[C@H](CCCNC(=N)N)NC(=O)[C@H](CO)NC(=O)[C@H](Cc1ccc(O)cc1)NC(=O)[C@H](CC(=O)O)NC(=O)[C@H](CO)NC(=O)[C@@H](NC(=O)[C@H](Cc1ccccc1)NC(=O)[C@@H](NC(=O)CNC(=O)[C@H](CCC(N)=O)NC(=O)[C@H](CO)NC(=O)[C@@H](N)Cc1c[nH]cn1)[C@@H](C)O)[C@@H](C)O)C(=O)N[C@@H](CCCNC(=N)N)C(=O)N[C@@H](CCCNC(=N)N)C(=O)N[C@@H](C)C(=O)N[C@@H](CCC(N)=O)C(=O)N[C@@H](CC(=O)O)C(=O)N[C@@H](Cc1ccccc1)C(=O)N[C@H](C(=O)N[C@@H](CCCCNC(=O)COCCOCCNC(=O)COCCOCCNC(=O)CC[C@H](NC(=O)CC[C@H](NC(=O)CC[C@H](NC(=O)CCCCCCCCCCCCCCCCC(=O)O)C(=O)O)C(=O)O)C(=O)O)C(=O)N[C@@H](Cc1c[nH]c2ccccc12)C(=O)N[C@@H](CC(C)C)C(=O)N[C@@H](CC(C)C)C(=O)N[C@@H](CO)C(=O)N[C@H](C(=O)O)[C@@H](C)O)C(C)C` [Example 28, N^ε24-[2-[2-[2-[[2-[2-[2-[[(4S)-4-carboxy-4-[[(4S)-4-carboxy-4-[[(4S)-4-carboxy-4-(17-carboxyheptadecanoylamino)butanoyl]amino]butanoyl]amino]butanoyl]amino]ethoxy]ethoxy]acetyl]amino]ethoxy]ethoxy]acetyl]-[Arg^12,Leu^16,Lys^24,Leu^27,Ser^28]-Glucagon] (H-HSQGTFTSDYSRYLDLRRAQDFVK([AEEA-AEEA-γGlu-γGlu-γGlu-C18 diacid])WLLST-OH), for which the EC50 was 0.1 nM.

As for `CC(C)C[C@H](NC(=O)[C@H](Cc1c[nH]c2ccccc12)NC(=O)[C@H](CCCCNC(=O)CC[C@H](NC(=O)CC[C@H](NC(=O)COCCOCCNC(=O)COCCOCCNC(=O)CC[C@H](NC(=O)CCCCCCCCCCCCCCCCC(=O)O)C(=O)O)C(=O)O)C(=O)O)NC(=O)[C@@H](NC(=O)[C@H](Cc1ccccc1)NC(=O)[C@H](CC(=O)O)NC(=O)[C@H](CCC(N)=O)NC(=O)[C@H](C)NC(=O)[C@H](CCCNC(=N)N)NC(=O)[C@H](CCCNC(=N)N)NC(=O)[C@@H](NC(=O)[C@H](CC(=O)O)NC(=O)[C@H](CC(C)C)NC(=O)[C@H](Cc1ccc(O)cc1)NC(=O)[C@H](CCCCN)NC(=O)[C@H](CO)NC(=O)[C@H](Cc1ccc(O)cc1)NC(=O)[C@H](CC(=O)O)NC(=O)[C@H](CO)NC(=O)[C@@H](NC(=O)[C@H](Cc1ccccc1)NC(=O)[C@@H](NC(=O)CNC(=O)[C@H](CCC(N)=O)NC(=O)[C@H](CO)NC(=O)[C@@H](N)Cc1c[nH]cn1)[C@@H](C)O)[C@@H](C)O)C(C)C)C(C)C)C(=O)N[C@@H](CC(C)C)C(=O)N[C@@H](CO)C(=O)N[C@H](C(=O)O)[C@@H](C)O` [Example 30, N^ε24-[(4S)-4-carboxy-4-[[(4S)-4-carboxy-4-[[2-[2-[2-[[2-[2-[2-[[(4S)-4-carboxy-4-(17-carboxyheptadecanoylamino)butanoyl]amino]ethoxy]ethoxy]acetyl]amino]ethoxy]ethoxy]acetyl]amino]butanoyl]amino]butanoyl]-[Val16,Lys24,Leu27,Ser28]-Glucagon], the concentration giving a half-maximal response (EC50) worked out at 0.307 nM.

As to `CC(C)C[C@H](NC(=O)[C@H](Cc1c[nH]c2ccccc12)NC(=O)[C@H](CCCCNC(=O)CC[C@H](NC(=O)CC[C@H](NC(=O)COCCOCCNC(=O)COCCOCCNC(=O)CC[C@H](NC(=O)CCCCCCCCCCCCCCCCC(=O)O)C(=O)O)C(=O)O)C(=O)O)NC(=O)[C@@H](NC(=O)[C@H](Cc1ccccc1)NC(=O)[C@H](CCC(=O)O)NC(=O)[C@H](CCC(N)=O)NC(=O)[C@H](C)NC(=O)[C@H](CCCNC(=N)N)NC(=O)[C@H](CCCNC(=N)N)NC(=O)[C@@H](NC(=O)[C@H](CC(=O)O)NC(=O)[C@H](CC(C)C)NC(=O)[C@H](Cc1ccc(O)cc1)NC(=O)[C@H](CCCCN)NC(=O)[C@H](CO)NC(=O)[C@H](Cc1ccc(O)cc1)NC(=O)[C@H](CC(=O)O)NC(=O)[C@H](CO)NC(=O)[C@@H](NC(=O)[C@H](Cc1ccccc1)NC(=O)[C@@H](NC(=O)CNC(=O)[C@H](CCC(N)=O)NC(=O)[C@H](CO)NC(=O)[C@@H](N)Cc1c[nH]cn1)[C@@H](C)O)[C@@H](C)O)[C@@H](C)O)C(C)C)C(=O)N[C@@H](CC(C)C)C(=O)N[C@@H](CO)C(=O)N[C@H](C(=O)O)[C@@H](C)O` [Example 31, N^ε24-[(4S)-4-carboxy-4-[[(4S)-4-carboxy-4-[[2-[2-[2-[[2-[2-[2-[[(4S)-4-carboxy-4-(17-carboxyheptadecanoylamino)butanoyl]amino]ethoxy]ethoxy]acetyl]amino]ethoxy]ethoxy]acetyl]amino]butanoyl]amino]butanoyl]-[Thr16,Glu21,Lys24,Leu27,Ser28]-Glucagon] (H-HSQGTFTSDYSKYLDTRRAQEFVK([γGlu-γGlu-AEEA-AEEA-γGlu-C18 diacid])WLLST-OH), a half-maximal response (EC50) required 0.072 nM.

`CC[C@H](C)[C@H](NC(=O)[C@H](CC(N)=O)NC(=O)[C@H](CC(C)C)NC(=O)[C@H](CC(C)C)NC(=O)[C@H](Cc1c[nH]c2ccccc12)NC(=O)[C@H](CCCCNC(=O)CC[C@H](NC(=O)COCCOCCNC(=O)COCCOCCNC(=O)CC[C@H](NC(=O)CCCCCCCCCCCCCCCCC(=O)O)C(=O)O)C(=O)O)NC(=O)[C@@H](NC(=O)[C@H](Cc1ccccc1)NC(=O)[C@H](CC(=O)O)NC(=O)[C@H](CCC(N)=O)NC(=O)[C@H](C)NC(=O)[C@H](CCCNC(=N)N)NC(=O)[C@H](CCCNC(=N)N)NC(=O)[C@H](CO)NC(=O)[C@H](CCC(=O)O)NC(=O)[C@H](CC(C)C)NC(=O)[C@H](Cc1ccc(O)cc1)NC(=O)[C@H](CCCCN)NC(=O)[C@H](CO)NC(=O)[C@H](Cc1ccc(O)cc1)NC(=O)[C@H](CC(=O)O)NC(=O)[C@H](CO)NC(=O)[C@@H](NC(=O)[C@H](Cc1ccccc1)NC(=O)[C@@H](NC(=O)CNC(=O)[C@H](CCC(N)=O)NC(=O)[C@H](CO)NC(=O)[C@@H](N)Cc1c[nH]cn1)[C@@H](C)O)[C@@H](C)O)C(C)C)C(=O)O` [Example 32, N^ε24-[(4S)-4-carboxy-4-[[2-[2-[2-[[2-[2-[2-[[(4S)-4-carboxy-4-(17-carboxyheptadecanoylamino)butanoyl]amino]ethoxy]ethoxy]acetyl]amino]ethoxy]ethoxy]acetyl]amino]butanoyl]-[Glu15,Lys24,Leu27,Ile29]-Glucagon] yielded an EC50 of 1.12 nM.

Compound `CC(C)C[C@H](NC(=O)[C@H](Cc1ccc(O)cc1)NC(=O)[C@H](CCCCN)NC(=O)[C@H](CO)NC(=O)[C@H](Cc1ccc(O)cc1)NC(=O)[C@H](CC(=O)O)NC(=O)[C@H](CO)NC(=O)[C@@H](NC(=O)[C@H](Cc1ccccc1)NC(=O)[C@@H](NC(=O)CNC(=O)[C@H](CCC(N)=O)NC(=O)[C@H](CO)NC(=O)[C@@H](N)Cc1c[nH]cn1)[C@@H](C)O)[C@@H](C)O)C(=O)N[C@@H](CCC(=O)O)C(=O)N[C@@H](CO)C(=O)N[C@@H](CCCNC(=N)N)C(=O)N[C@@H](CCCNC(=N)N)C(=O)N[C@@H](C)C(=O)N[C@@H](CCC(N)=O)C(=O)N[C@@H](CC(=O)O)C(=O)N[C@@H](Cc1ccccc1)C(=O)N[C@H](C(=O)N[C@@H](CCCCNC(=O)CC[C@H](NC(=O)COCCOCCNC(=O)COCCOCCNC(=O)CC[C@H](NC(=O)CCCCCCCCCCCCCCCCC(=O)O)C(=O)O)C(=O)O)C(=O)N[C@@H](Cc1c[nH]c2ccccc12)C(=O)N[C@@H](CC(C)C)C(=O)N[C@@H](CC(C)C)C(=O)N[C@@H](CC(N)=O)C(=O)N[C@H](C(=O)O)C(C)C)C(C)C` [Example 33, N^ε24-[(4S)-4-carboxy-4-[[2-[2-[2-[[2-[2-[2-[[(4S)-4-carboxy-4-(17-carboxyheptadecanoylamino)butanoyl]amino]ethoxy]ethoxy]acetyl]amino]ethoxy]ethoxy]acetyl]amino]butanoyl]-[Glu15,Lys24,Leu27,Val29]-Glucagon] had an EC50 of 0.92 nM.
